In patent US11358969B2, “Indole AHR inhibitors and uses thereof” (Ikena Oncology, Inc., priority 2017, dated 2022):

Target: T1, AHR (UniProt P35869)
T1 construct: IC50
T1 sequence (P35869 1-848): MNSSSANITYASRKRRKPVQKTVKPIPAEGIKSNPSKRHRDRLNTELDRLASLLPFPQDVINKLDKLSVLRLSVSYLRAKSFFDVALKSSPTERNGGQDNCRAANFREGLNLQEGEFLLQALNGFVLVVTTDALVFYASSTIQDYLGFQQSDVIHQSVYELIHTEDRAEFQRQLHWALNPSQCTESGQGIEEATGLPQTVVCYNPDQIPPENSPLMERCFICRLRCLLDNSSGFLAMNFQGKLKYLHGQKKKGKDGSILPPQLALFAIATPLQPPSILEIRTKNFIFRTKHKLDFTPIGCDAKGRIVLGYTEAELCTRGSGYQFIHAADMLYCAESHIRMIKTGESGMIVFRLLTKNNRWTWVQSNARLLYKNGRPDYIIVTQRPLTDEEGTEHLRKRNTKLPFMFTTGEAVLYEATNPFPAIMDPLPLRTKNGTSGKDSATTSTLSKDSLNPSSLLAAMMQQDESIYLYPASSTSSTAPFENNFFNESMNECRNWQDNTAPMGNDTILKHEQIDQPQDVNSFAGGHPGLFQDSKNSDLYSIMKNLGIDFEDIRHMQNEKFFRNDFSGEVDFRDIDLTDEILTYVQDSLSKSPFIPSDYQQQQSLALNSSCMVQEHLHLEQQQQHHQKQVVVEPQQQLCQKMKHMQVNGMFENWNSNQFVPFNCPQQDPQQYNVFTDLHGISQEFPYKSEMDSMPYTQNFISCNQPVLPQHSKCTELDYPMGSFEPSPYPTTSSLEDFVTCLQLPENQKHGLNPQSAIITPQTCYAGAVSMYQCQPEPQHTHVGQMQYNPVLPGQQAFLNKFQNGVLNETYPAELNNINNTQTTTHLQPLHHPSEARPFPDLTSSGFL
Test: DRE-Luciferase Reporter Assay (Alternate Method) (Example 1B)
Format: cell-based, murine or human
Conditions: cell line and AHR activating ligand not specified

Compound	IC50 [nM]
CNCc1cnn2c(NC3CCc4[nH]c5ccccc5c4C3)nc(-c3cncc(F)c3)nc12 (stereo not shown) [I-277]	< 500
OCc1cnn2c(NC3CCc4[nH]c5ccccc5c4C3)nc(-c3cncc(F)c3)nc12 (stereo not shown) [I-278]	< 500
CC(C)c1cnn2c(NC3CCc4[nH]c5ccccc5c4C3)nc(-c3cncc(C(F)(F)F)c3)nc12 (stereo not shown) [I-279]	> 1500
CC(C)c1cnn2c(NC3CCc4[nH]c5ccccc5c4C3)nc(-c3ccc(C(F)(F)F)nc3)nc12 (stereo not shown) [I-280]	> 1500
CC(C)c1cnn2c(NC3CCc4[nH]c5ccccc5c4C3)nc(-n3ccnc3)nc12 (stereo not shown) [I-281]	< 500
C#Cc1cnn2c(NC3CCc4[nH]c5ccccc5c4C3)nc(-c3cncc(F)c3)nc12 (stereo not shown) [I-282]	< 500
CNC(=O)c1cnn2c(NC3CCc4[nH]c5ccccc5c4C3)nc(-c3cncc(F)c3)nc12 (stereo not shown) [I-283]	> 1500
CC(C)c1cnn2c(NC3CCc4[nH]c5ccccc5c4C3)nc(-c3ccnnc3)nc12 (stereo not shown) [I-284]	500 to 1000
O=C(NC1CC1)c1cnn2c(NC3CCc4[nH]c5ccccc5c4C3)nc(-c3cncc(F)c3)nc12 (stereo not shown) [I-285]	> 1500
CON(C)C(=O)c1cnn2c(NC3CCc4[nH]c5ccccc5c4C3)nc(-c3cncc(F)c3)nc12 (stereo not shown) [I-286]	< 500
O=C(O)c1cnn2c(NC3CCc4[nH]c5ccccc5c4C3)nc(-c3cncc(F)c3)nc12 (stereo not shown) [I-287]	> 1500
CN(C)C(=O)c1cnn2c(NC3CCc4[nH]c5ccccc5c4C3)nc(-c3cncc(F)c3)nc12 (stereo not shown) [I-288]	< 500
CC(C)c1cnn2c(NCCc3n[nH]c4ccccc34)nc(-c3cncc(F)c3)nc12 [I-289]	< 500
